Columns and labels:
[1] = system: mitochondria of KP4 cells expressing pMXs-3XHA-EGFP-OMP25; experiment: Mitochondrial permeation and accumulation (anti-HA IP, MALDI-MS); assay type: cell-based, human; conditions: 15 µM, 3 h
Method: Figure 2 (A) Partition of compounds in an U-tube experiment. Concentration of biguanide on the trans-side of the U-tube at 48 h and 72 h at 25 °C, after addition of 250 µM of biguanide on the cis-side. (B) Variation in the internal pH of HPTS-containing EYPC liposomes. Intravesicular solution: 1 mM HPTS, 10 mM HEPES, and 100 mM NaCl, adjusted to pH = 7.4, and extravesicular solution: 10 mM HEPES and 100 mM NaCl, adjusted to pH = 7.4. Biguanidiums were injected after 50 s at 5 mM (50 mol% relative to the 10 mM EYPC concentration), a NaOH pulse was induced at 300 s, and the liposomes were lysed with Triton-X at 550 s. Each curve is the average of three independent measurements. (C) Fluorescence of safranin O in the EYPC liposomes. Biguanidium salts were injected at 5 mM (50 mol% relative to the 10 mM EYPC concentration) at 50 s. Each curve is the average of three independent measurements. […] Mitochondrial isolation was performed according to the previously reported protocol.

[2] = system: KP4 cells; experiment: Cell death assay (trypan blue), KP4 cells; assay type: cell-based, human; conditions: 15 µM for 24 h
Text: (§1) Experimental. […] At the end of the treatments, adherent cells were recovered by trypsinization, along with floating cells recovered by centrifugation of the culture medium. Floating and adherent cells were pooled together. The faction of dead cells was quantified by counting the proportion of trypan blue-positive (dead cells) and the proportion of living cells (trypan blue-negative).

[3] = system: HPNE-hTERT cells; experiment: Cell death assay (trypan blue), HPNE-hTERT cells; assay type: cell-based, human; conditions: 15 µM for 24 h
Text: (§2) Figure 3 Effects of biguanides on cell proliferation and viability in pancreatic cancer cells. […]. […] | decimal sign comma or point
as §1

[4] = system: NAD+/NADH ratio in PSN1 cells; experiment: NAD/NADH quantification, PSN1 cells; assay type: cell-based; conditions: 15 µM, 6 h
Method: (§3) All chemicals were purchased from Aldrich Chemicals in their highest purity and used without further purification. Deuterated dimethylsulfoxide (DMSO-d^6) and deuterated chloroform (CDCl3) were purchased from CDN Isotopes. NMR spectra were recorded on Bruker advance 400 and 100 spectrometers. Coupling constants are given in hertz (Hz) and chemical shifts are given in parts per million (ppm, δ) measured relative to the residual solvent (the multiplicity of the signals are given as s: singlet, d: doublet, t: triplet, and m: multiplet). High-resolution mass spectra (HRMS) were recorded on a TSQ Quantum Ultra (Thermo Scientific) triple quadrupole with accurate mass option instrument (Université de Montréal Mass Spectrometry Facility). […] Transport and depolarization studies as well as absorbance measurements were performed on a Varian Cary Eclipse fluorescence spectrophotometer. The hemolysis assays were performed on a Fluostar Optima plate reader. […] A suitable crystal was selected and analysed on a Bruker Venture Metaljet diffractometer. Crystal violet retention assay was used for cell growth assays and IC50 were determined using Prism (GraphPad). NAD/NADH quantitation colorimetric kit (#K337-100) from Biovision was used according to manufacturer’s instructions. ECAR (extracellular acidification rate) and OCR of KP4 cells (oxygen consumption rate) were measured on a Seahorse XF-24 (Agilent). […]

[5] = system: NAD+/NADH ratio in KP4 cells; experiment: NAD/NADH quantification, KP4 cells; assay type: cell-based, human
Method: as §3

[6] = system: AMPK; experiment: Immunoblots of AMPK T172 and ACC S79 phosphorylation, KP4 cells; assay type: cell-based, human; conditions: 15 µM, 24 h
Method: as §2
. […]. Experimental. Cells were rinsed twice with 1X PBS, and lysed in Laemmli 2x (4% SDS, 20% glycerol, 120 mM Tris-HCl pH 6.8). Laemmli extracts were boiled for 5 minutes, then the concentration was assessed with NanoDrop (ThermoFisher) and equalized between samples. Lysates were supplemented with 10% beta-mercaptoethanol and 0.05% bromophenol blue and boiled again for 5 minutes. 25 µg of extracts were loaded on SDS-PAGE then transferred on nitrocellulose membranes for 1h30 at 130V. Membranes were rinsed in 1XPBS1-0.05% Tween-20 then blocked for 1h in 1XPBS, 0.05%-Tween-20 5% Milk. Membranes were rinsed again 3 x 10 min in PBS-Tween, then incubated overnight at 4°C with the following primary antibodies in 1XPBS-0.1%BSA, 0.02%Sodium azide: anti-phospho-AMPK T172 (1:1000, Rabbit, 2531S, Cell Signaling), anti-AMPKalpha (1:1000, Rabbit, 2532, Cell Signaling), anti-phospho-ACC S79 (1:1000, Rabbit Polyclonal, 3661S, Cell Signaling), or incubated for 1h at RT with anti-beta-Actin (1:2000, Mouse, 3700, Cell Signaling). […]

[7] = system: KP4 tumor sections; experiment: KI67 and cleaved caspase 3 staining of tumor sections from treated mice; assay type: in vivo, nude mice; conditions: 50 mg/kg, tumor sections after treatment
Text: (B) Body weight of mice seven days after treatment. […] Representative images shown. Scale bar = 100 µm.
To assess the mechanism of the antitumor activity, we stained tumor sections obtained from animals after the treatment protocol for proliferation marker KI67 and apoptosis marker cleaved caspase 3, and quantified the data according to the scoring key in Fig. 5C. […] However, there were no significant differences in staining for cleaved caspase 3 […].

With `N=C(N)NC(=N)NCc1ccc(C#Cc2ccccc2)cc1` [1b, 4-(phenylethynyl)benzylbiguanide] the Mitochondrial penetration [1] was “able to efficiently penetrate mitochondria”, the “Increase of the fraction of dead KP4 cells” value [2] was ~ 20% and the “Effect on the fraction of dead HPNE cells” value [3] was “did not increase the fraction of dead cells”. For the same compound, the “Decrease of NAD+/NADH ratio” value [4] was 25%, the “Decrease of NAD+/NADH ratio” value ([5]; KP4 cells, 15 µM, 18 h) was 40% and the “Fold lower concentration than metformin for AMPK activation, decrease of NAD+/NADH ratio and mitochondrial respiration” value ([5]; abstract) was 800 fold. For the same compound, the “AMPK activation (phosphorylation of AMPK T172 and ACC)” value [6] was “induced AMPK activation” and the “KI67 staining in tumors” value [7] was “reduced KI67 staining in tumors”.

From publication PMC8110578, “Phenylethynylbenzyl-modified biguanides inhibit pancreatic cancer tumor growth” (Scientific Reports, 2021)
